Experimental data published in patent publication US11241422B2, “Methods for treatment of Fabry disease” (Amicus Therapeutics, Inc., priority 2006, dated 2022).

How the values were obtained:
[1] = molecular target: T1, mutant α-GAL (Homo sapiens, UniProt P06280, A97V); test: T cell-based α-GAL enhancement assay, T cells from Fabry patients cultured with DGJ; parameters: key to Enhancement Group / Enhancement ratio: E: enhanceable;; I: enhanceable (intermediate);; NE: not enhanceable;; details: for α-GAL activity / dosage effect on α-GAL activity: A97V T cells
T1 construct: was put into a fresh tube and used as the source of α-GAL; endogenous in cells; host or cells: T cell cultures established from blood of Fabry patients
T1 sequence (P06280 32-429 A97V): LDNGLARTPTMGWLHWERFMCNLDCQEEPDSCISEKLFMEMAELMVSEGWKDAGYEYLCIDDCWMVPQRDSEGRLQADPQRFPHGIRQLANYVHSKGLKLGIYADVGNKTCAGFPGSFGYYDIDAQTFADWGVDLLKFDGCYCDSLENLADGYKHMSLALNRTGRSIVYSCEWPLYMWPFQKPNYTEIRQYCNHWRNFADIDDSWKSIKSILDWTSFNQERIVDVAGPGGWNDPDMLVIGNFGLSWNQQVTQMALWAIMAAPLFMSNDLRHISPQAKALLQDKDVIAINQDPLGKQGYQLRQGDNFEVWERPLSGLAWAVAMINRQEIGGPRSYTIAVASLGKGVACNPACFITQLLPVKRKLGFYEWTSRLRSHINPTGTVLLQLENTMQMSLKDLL
Method: (§1) 2. WBC Separation: • Patient blood was drawn into an 8 mL CPT tube, which has been stored at 18-25° C. • immediately after collecting blood, it was mixed by inverting the tube 8-10 times. • The tube was centrifuged at room temperature (18-25° C.) for 30 minutes at 1800× g using a tabletop centrifuge equipped with swinging buckets. Universal precautions for handling blood specimens were taken, including the use of a closed canister type bucket for centrifugation. • Following centrifugation, several layers of the blood composition become distinguishable which represented separation of the red blood cells from the plasma and white cells.
(§2) 3. Washing of WBC's • Half of the plasma layer was aspirated by vacuum and discarded without disturbing the white cell layer. All of the remaining fluid, including the cell layer, was transferred with a Pasteur pipette to a 15 mL conical screw-cap Falcon centrifuge tube. • PBS was added to bring the volume up to 14 mL and the tube was mixed by inversion. • The tube was centrifuged at room temperature for 20-30 minutes at 1300 rpm (approximately 320× g). • Immediately after centrifugation, as much supernatant as possible was aspirated by vacuum and discarded without disturbing the cell pellet.
(§3) 5. Optional: Freezing WBC Pellet • The cell pellet was mixed in the remaining liquid by tapping a finger against the bottom of the tube. • 0.5 to 1 mL of PBS was added to the re-suspended cells and one half of the pellet was transferred (using a sterile tip on a micropipette) to a labeled 1.8 mL cryovial. • The cryovial was centrifuged at room temperature for 5 minutes at 5000 rpm (approximately 2250 g) in a microcentrifuge. • All of the supernatant liquid was discarded using a Pasteur pipette without disturbing the cell pellet. • 0.5 to 1 ml of RPMI 1640 containing 10% FBS and 5% DMSO was then added to the tube and mixed a pipette and frozen overnight at −80 C prior to transferring to a liquid nitrogen cell storage freezer. B. Establishment of T-Cell Cultures from Blood Specimens • 1. The washed cells were re-suspended in 3.0 ml of RPMI 1640 medium with 10% Cosmic Calf Serum (CCS, Hyclone Laboratories, Logan, Utah), about 25 ng/ml IL-2 (PreProTECH, Rocky Hill, N.J.) and the manufacturer's recommended concentration of PHA (Life Technology, Gaithersburg, Md.). The cells were then transferred to an upright an upright […] culture flask and incubated for 3-4 days at 37° C., 5% CO2. • 2. The cell culture was diluted to 5 ml with growth medium (RPMI-1640, 10% FBS, 25 ng/ml IL-2). The cell concentration was then adjusted to about 5×10^5 cells/ml in the flask. • 3. The growth of the cells was monitored daily. Cells were maintained between 5×10^5 and 1.5×10^6 cells in an upright flask. […] Senescence of the culture will be apparent by a dramatic reduction in growth rate. Culture time may possibly be extended by re-stimulation with PHA. • 4. Optional-Freezing T-lymphocytes: T-lymphocytes may be frozen at 3×10^6 cells/vial using RPMI1640 medium containing 20% FCS and 7.5% DMSO. On day 5, 6, or 7 cryopreserve as many vials as possible at 3×10^6 cells/vial. This is sufficient to thaw 5 mLs of culture at 5×10^5 viable cells/ml. When establishing T-cell cultures, the following should be noted. • Fresh blood specimens should be collected in heparinized tubes (or tubes containing an appropriate anti-coagulant) and used the same day. ACD tubes should be used if specimens cannot be processed within 24 hours. (Clin Chem 1988 January; 34(1):110-3; Clin Diagn Lab Immunol. 1998 November; 5(6):804-7.). • Eight-10 mLs of blood is usually sufficient to establish 20 million cells by day 5. • T lymphocytes are the specific targets of the HIV virus. Use extreme care if the HIV status of the patient is unknown. • Each new lot of IL-2 should be tested to determine the optimal concentration.

[2] = molecular target: T2, mutant α-GAL (Homo sapiens, UniProt P06280, DEL358-358); test: as above; parameters: key to Enhancement Group / Enhancement ratio: E: enhanceable;; I: enhanceable (intermediate);; NE: not enhanceable;; details: Fabry patient T cells
T2 construct: endogenous in cells; host or cells: T cell cultures established from blood of Fabry patients
T2 sequence (P06280 with tags, fused parts or gaps DEL358-358): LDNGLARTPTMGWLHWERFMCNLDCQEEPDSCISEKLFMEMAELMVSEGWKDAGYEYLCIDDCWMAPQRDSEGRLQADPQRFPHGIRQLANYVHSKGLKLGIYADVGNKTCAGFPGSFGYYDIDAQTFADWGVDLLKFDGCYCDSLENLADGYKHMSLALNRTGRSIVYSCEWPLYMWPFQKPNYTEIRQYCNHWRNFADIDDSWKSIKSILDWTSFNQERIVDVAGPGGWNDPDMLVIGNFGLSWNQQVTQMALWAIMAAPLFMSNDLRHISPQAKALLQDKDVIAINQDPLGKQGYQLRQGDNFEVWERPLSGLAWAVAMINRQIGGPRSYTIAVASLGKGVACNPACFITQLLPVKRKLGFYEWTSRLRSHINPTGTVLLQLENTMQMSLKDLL
Method: as §1, §2, §3

SMILES: OC[C@H]1NC[C@H](O)[C@@H](O)[C@H]1O [DGJ, 1-deoxygalactonojirimycin]
- α-GAL activity ([1]; 20 μM DGJ, 1 day of incubation): about 40 % of normal
- α-GAL activity ([1]; 20 μM DGJ, 4 days of incubation): 80 % of normal
- dosage effect on α-GAL activity ([1]; DGJ 2 nM to 20 μM): dose-dependent manner
- dosage effect on α-GAL activity ([1]; DGJ 200 μM compared with 20 μM): decrease in α-GAL activity
- increase of activity in the presence of DGJ ([1]; A97V mutation, T cells): 6 fold
- DGJ concentration of optimal enhancement of activity ([1]; A97V mutation, three experiments, 2 nM-200 μM): 20 µM
- Enhancement Group ([1]; Fabry patient T cells, mutation A97V): E
- Activity (% Normal) (+DGJ) ([1]; Fabry patient T cells, mutation A97V, 20 μM DGJ): 75 % Normal
- Enhancement ratio ([1]; Fabry patient T cells, mutation A97V, +DGJ vs −DGJ): 5.5
- Enhancement Group ([2]; mutation dE358): NE
- Activity (% Normal) (+DGJ) ([2]; mutation dE358, 20 μM DGJ): 4 % Normal
- Enhancement ratio ([2]; mutation dE358, +DGJ vs −DGJ): NE
